Tested on: SEM cells
Experiment: cell viability relative to DMSO control; higher = less cytotoxic
Settings: 48 h
Method in brief: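 Library compounds in DMSO were pin-dosed in an 11-point threefold series (47 μM to 0.79 nM) onto leukemia cells in 1536-well plates (5 μl). Plates held 500 cells/well of NOMO1 or SEM or 1000 cells/well of P12-Ichikawa, each adapted for at least four passages in each medium. Luminescence was read with CellTiter-Glo One after 48 h at 37°C. Viability means the per-plate percentage relative to DMSO wells, using cell-free wells as background.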

[1] = HPLM + 10% dialyzed FBS, 0.000781 µM
[2] = HPLM + 10% dialyzed FBS, 0.00234 µM
[3] = HPLM + 10% dialyzed FBS, 0.00702 µM
[4] = HPLM + 10% dialyzed FBS, 0.0211 µM
[5] = HPLM + 10% dialyzed FBS, 0.0632 µM
[6] = HPLM + 10% dialyzed FBS, 0.19 µM
[7] = HPLM + 10% dialyzed FBS, 0.569 µM
[8] = HPLM + 10% dialyzed FBS, 1.71 µM
[9] = HPLM + 10% dialyzed FBS, 5.12 µM
[10] = HPLM + 10% dialyzed FBS, 15.4 µM
[11] = HPLM + 10% dialyzed FBS, 46.1 µM
[12] = RPMI 5 mM glucose + 10% FBS, 0.000781 µM
[13] = RPMI 5 mM glucose + 10% FBS, 0.00234 µM
[14] = RPMI 5 mM glucose + 10% FBS, 0.00702 µM
[15] = RPMI 5 mM glucose + 10% FBS, 0.0211 µM
[16] = RPMI 5 mM glucose + 10% FBS, 0.0632 µM
[17] = RPMI 5 mM glucose + 10% FBS, 0.19 µM
[18] = RPMI 5 mM glucose + 10% FBS, 0.569 µM
[19] = RPMI 5 mM glucose + 10% FBS, 1.71 µM
[20] = RPMI 5 mM glucose + 10% FBS, 5.12 µM
[21] = RPMI 5 mM glucose + 10% FBS, 15.4 µM
[22] = RPMI 5 mM glucose + 10% FBS, 46.1 µM
[23] = RPMI 5 mM glucose + 10% dialyzed FBS, 0.000781 µM
[24] = RPMI 5 mM glucose + 10% dialyzed FBS, 0.00234 µM
[25] = RPMI 5 mM glucose + 10% dialyzed FBS, 0.00702 µM
[26] = RPMI 5 mM glucose + 10% dialyzed FBS, 0.0211 µM
[27] = RPMI 5 mM glucose + 10% dialyzed FBS, 0.0632 µM
[28] = RPMI 5 mM glucose + 10% dialyzed FBS, 0.19 µM
[29] = RPMI 5 mM glucose + 10% dialyzed FBS, 0.569 µM
[30] = RPMI 5 mM glucose + 10% dialyzed FBS, 1.71 µM
[31] = RPMI 5 mM glucose + 10% dialyzed FBS, 5.12 µM
[32] = RPMI 5 mM glucose + 10% dialyzed FBS, 15.4 µM
[33] = RPMI 5 mM glucose + 10% dialyzed FBS, 46.1 µM

C/C1=C/C(=C(/CNC(=O)C2=CC(=CC3=C2C=N[N]3C4CCCC4)C5=CC=C(CN6CCOCC6)C=C5)C(=O)N1)C
cell viability [1]: 113%
cell viability [2]: 122%
cell viability [3]: 126%
cell viability [4]: 23.4%
cell viability [5]: 117%
cell viability [6]: 127%
cell viability [7]: 115%
cell viability [8]: 115%
cell viability [9]: 113%
cell viability [10]: 106%
cell viability [11]: 7.3%
cell viability [12]: 97.8%
cell viability [13]: 103%
cell viability [14]: 116%
cell viability [15]: 18.1%
cell viability [16]: 106%
cell viability [17]: 96.5%
cell viability [18]: 83.4%
cell viability [19]: 93.2%
cell viability [20]: 92%
cell viability [21]: 67.5%
cell viability [22]: 4.27%
cell viability [23]: 116%
cell viability [24]: 124%
cell viability [25]: 132%
cell viability [26]: 22.7%
cell viability [27]: 130%
cell viability [28]: 122%
cell viability [29]: 118%
cell viability [30]: 129%
cell viability [31]: 128%
cell viability [32]: 126%
cell viability [33]: 6.82%

C#CCC(Cc1cnc2nc(N)nc(N)c2n1)c1ccc(C(=O)N[C@@H](CCC(=O)O)C(=O)O)cc1 (stereo partly drawn)
cell viability [1]: 110%
cell viability [2]: 113%
cell viability [3]: 114%
cell viability [4]: 119%
cell viability [5]: 47%
cell viability [6]: 48%
cell viability [7]: 39.2%
cell viability [8]: 36.3%
cell viability [9]: 31.9%
cell viability [10]: 38.1%
cell viability [11]: 35.1%
cell viability [12]: 113%
cell viability [13]: 122%
cell viability [14]: 120%
cell viability [15]: 118%
cell viability [16]: 90.6%
cell viability [17]: 73.3%
cell viability [18]: 74.1%
cell viability [19]: 71.9%
cell viability [20]: 66.7%
cell viability [21]: 68.1%
cell viability [22]: 68%
cell viability [23]: 105%
cell viability [24]: 114%
cell viability [25]: 110%
cell viability [26]: 107%
cell viability [27]: 27.4%
cell viability [28]: 23.5%
cell viability [29]: 24.3%
cell viability [30]: 23%
cell viability [31]: 20.3%
cell viability [32]: 22.9%
cell viability [33]: 22.3%

COc1ccc(/C=C/C(=O)Nc2ccccc2C(=O)O)cc1OC
cell viability [12]: 109%
cell viability [13]: 140%
cell viability [14]: 118%
cell viability [15]: 130%
cell viability [16]: 99.4%
cell viability [17]: 97.5%
cell viability [18]: 110%
cell viability [19]: 116%
cell viability [20]: 125%
cell viability [21]: 106%
cell viability [22]: 104%
cell viability [23]: 94.7%
cell viability [24]: 115%
cell viability [25]: 110%
cell viability [26]: 108%
cell viability [27]: 35.1%
cell viability [28]: 115%
cell viability [29]: 96.7%
cell viability [30]: 110%
cell viability [31]: 116%
cell viability [32]: 129%
cell viability [33]: 96.7%

c1coc(CNc2ncnc3nc[nH]c23)c1
cell viability [1]: 112%
cell viability [2]: 101%
cell viability [3]: 112%
cell viability [4]: 103%
cell viability [5]: 116%
cell viability [6]: 118%
cell viability [7]: 123%
cell viability [8]: 110%
cell viability [9]: 130%
cell viability [10]: 127%
cell viability [11]: 103%
cell viability [12]: 110%
cell viability [13]: 120%
cell viability [14]: 116%
cell viability [15]: 121%
cell viability [16]: 124%
cell viability [17]: 110%
cell viability [18]: 119%
cell viability [19]: 120%
cell viability [20]: 143%
cell viability [21]: 119%
cell viability [22]: 105%
cell viability [23]: 105%
cell viability [24]: 115%
cell viability [25]: 106%
cell viability [26]: 114%
cell viability [27]: 111%
cell viability [28]: 114%
cell viability [29]: 97.4%
cell viability [30]: 109%
cell viability [31]: 115%
cell viability [32]: 119%
cell viability [33]: 96.1%

O=C(O)c1cccc(-c2noc(-c3ccccc3F)n2)c1
cell viability [1]: 106%
cell viability [2]: 109%
cell viability [3]: 92.3%
cell viability [4]: 100%
cell viability [5]: 101%
cell viability [6]: 110%
cell viability [7]: 102%
cell viability [8]: 104%
cell viability [9]: 104%
cell viability [10]: 92.3%
cell viability [11]: 88.1%
cell viability [12]: 88.1%
cell viability [13]: 94.7%
cell viability [14]: 105%
cell viability [15]: 94.1%
cell viability [16]: 99.6%
cell viability [17]: 107%
cell viability [18]: 101%
cell viability [19]: 99.3%
cell viability [20]: 98.3%
cell viability [21]: 84.3%
cell viability [22]: 73.5%
cell viability [23]: 87.1%
cell viability [24]: 106%
cell viability [25]: 106%
cell viability [26]: 108%
cell viability [27]: 115%
cell viability [28]: 94.2%
cell viability [29]: 122%
cell viability [30]: 112%
cell viability [31]: 108%
cell viability [32]: 95.7%
cell viability [33]: 85.7%

CN1CCN(CC1)C2=CC3=C([NH]C(=N3)C/4=C(\N)C5=C(F)C=CC=C5NC4=O)C=C2
cell viability [1]: 39.9%
cell viability [2]: 48.9%
cell viability [3]: 44.5%
cell viability [4]: 45.4%
cell viability [5]: 31%
cell viability [6]: 46.1%
cell viability [7]: 36.6%
cell viability [8]: 26.5%
cell viability [9]: 21.4%
cell viability [10]: 17.3%
cell viability [11]: 5.83%
cell viability [12]: 52.6%
cell viability [13]: 65.8%
cell viability [14]: 50%
cell viability [15]: 54.7%
cell viability [16]: 37.4%
cell viability [17]: 44.5%
cell viability [18]: 36.2%
cell viability [19]: 25.6%
cell viability [20]: 19.5%
cell viability [21]: 9.89%
cell viability [22]: 8.79%
cell viability [23]: 40.7%
cell viability [24]: 58.3%
cell viability [25]: 43.3%
cell viability [26]: 41.6%
cell viability [27]: 31.2%
cell viability [28]: 34.6%
cell viability [29]: 32.7%
cell viability [30]: 27.2%
cell viability [31]: 19.8%
cell viability [32]: 10.5%
cell viability [33]: 5.75%

CCn1c(C(=O)N(C2CC2)C2CC2)cc2c3c(ncn3C)c(Nc3cc(C)n(C)n3)nc21
cell viability [1]: 75.8%
cell viability [2]: 100%
cell viability [3]: 113%
cell viability [4]: 99.9%
cell viability [5]: 107%
cell viability [6]: 101%
cell viability [7]: 99.9%
cell viability [8]: 106%
cell viability [9]: 94.3%
cell viability [10]: 78.8%
cell viability [11]: 55.3%
cell viability [12]: 71.3%
cell viability [13]: 114%
cell viability [14]: 119%
cell viability [15]: 121%
cell viability [16]: 119%
cell viability [17]: 123%
cell viability [18]: 110%
cell viability [19]: 106%
cell viability [20]: 93%
cell viability [21]: 91.3%
cell viability [22]: 26.7%
cell viability [23]: 75.7%
cell viability [24]: 109%
cell viability [25]: 117%
cell viability [26]: 107%
cell viability [27]: 104%
cell viability [28]: 100%
cell viability [29]: 102%
cell viability [30]: 112%
cell viability [31]: 82.8%
cell viability [32]: 66.8%
cell viability [33]: 34.1%

COC(=O)[C@H](Cc1ccccc1)NC(=O)[C@@H](N)CC(=O)O
cell viability [1]: 128%
cell viability [2]: 106%
cell viability [3]: 111%
cell viability [4]: 103%
cell viability [5]: 130%
cell viability [6]: 110%
cell viability [7]: 126%
cell viability [8]: 119%
cell viability [9]: 103%
cell viability [10]: 120%
cell viability [11]: 116%
cell viability [12]: 125%
cell viability [13]: 98.5%
cell viability [14]: 121%
cell viability [15]: 112%
cell viability [16]: 122%
cell viability [17]: 118%
cell viability [18]: 128%
cell viability [19]: 119%
cell viability [20]: 100%
cell viability [21]: 123%
cell viability [22]: 116%
cell viability [23]: 124%
cell viability [24]: 106%
cell viability [25]: 104%
cell viability [26]: 107%
cell viability [27]: 123%
cell viability [28]: 122%
cell viability [29]: 111%
cell viability [30]: 116%
cell viability [31]: 98.3%
cell viability [32]: 110%
cell viability [33]: 104%
